From PubChem BioAssay AID248 (DTP/NCI, 2004)
Inconclusive results and toxic doses are left out.

Tested on: L1210 leukemia ip in BDF1 mice, survival T/C
Assay: NCI In Vivo Anticancer Drug Screen. Data for tumor model L1210 Leukemia (intraperitoneal) in B6D2F1 (BDF1) mice
Settings: endpoint: mean survival time, higher = longer survival
Summary of the method: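 Read-out is survival time, reported as the treated-group measurement over the vehicle-control measurement.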

[1] = dose: 100.0 mg/kg/injection, schedule: Q04DX003 (ip), vehicle: Klucel (hydroxypropylcellulose) (HPC)
[2] = dose: 200.0 mg/kg/injection, schedule: Q04DX003 (ip), vehicle: Klucel (hydroxypropylcellulose) (HPC)
[3] = dose: 400.0 mg/kg/injection, schedule: Q04DX003 (ip), vehicle: Klucel (hydroxypropylcellulose) (HPC)
[4] = dose: 50.0 mg/kg/injection, schedule: Q01DX009 (ip), vehicle: saline with Tween-80
[5] = dose: 100.0 mg/kg/injection, schedule: Q01DX009 (ip), vehicle: saline with Tween-80
[6] = dose: 200.0 mg/kg/injection, schedule: Q01DX009 (ip), vehicle: saline with Tween-80
[7] = dose: 100.0 mg/kg/injection, schedule: Q04DX003 (ip), vehicle: saline
[8] = dose: 200.0 mg/kg/injection, schedule: Q04DX003 (ip), vehicle: saline
[9] = dose: 400.0 mg/kg/injection, schedule: Q04DX003 (ip), vehicle: saline
[10] = dose: 100.0 mg/kg/injection, schedule: Q01DX001 (ip), vehicle: other
[11] = dose: 200.0 mg/kg/injection, schedule: Q01DX001 (ip), vehicle: other
[12] = dose: 50.0 mg/kg/injection, schedule: Q01DX001 (ip), vehicle: saline
[13] = dose: 100.0 mg/kg/injection, schedule: Q01DX001 (ip), vehicle: saline
[14] = dose: 200.0 mg/kg/injection, schedule: Q01DX001 (ip), vehicle: saline

O=C(N=C=S)c1ccccc1
T/C (dose: 100.0 mg/kg/injection, schedule: Q01DX009 (ip), vehicle: other): 95 % of control
T/C (dose: 200.0 mg/kg/injection, schedule: Q01DX009 (ip), vehicle: other): 87 % of control
T/C (dose: 400.0 mg/kg/injection, schedule: Q01DX009 (ip), vehicle: other): 89 % of control

S=C=Nc1cccc(Cl)c1
T/C (dose: 75.0 mg/kg/injection, schedule: Q01DX001 (ip), vehicle: saline): 100 % of control
T/C (dose: 150.0 mg/kg/injection, schedule: Q01DX001 (ip), vehicle: saline): 96 % of control

CCCCOCCOP(=O)(OCCOCCCC)OCCOCCCC
T/C [1]: 98 % of control
T/C [2]: 98 % of control
T/C [3]: 101 % of control

CC(=O)N(N=Nc1ccc(Cl)cc1)c1ccc(Cl)cc1
T/C [4]: 98 % of control
T/C [5]: 98 % of control
T/C [6]: 98 % of control

NC(N)=NNCCOc1c(Cl)cccc1Cl
T/C (dose: 25.0 mg/kg/injection, schedule: Q01DX001 (ip), vehicle: carboxymethylcellulose (CMC)): 116 % of control
T/C (dose: 50.0 mg/kg/injection, schedule: Q01DX001 (ip), vehicle: carboxymethylcellulose (CMC)): 101 % of control
T/C (dose: 100.0 mg/kg/injection, schedule: Q01DX001 (ip), vehicle: carboxymethylcellulose (CMC)): 111 % of control

CCN(CC)CCNC(C)=O
T/C [7]: 104 % of control
T/C [8]: 101 % of control
T/C [9]: 97 % of control

O=C(Nc1ccc(NC(=O)c2ccc(C3=NCCCN3)cc2)cc1)Nc1ccc(C2=NCCCN2)cc1
T/C (dose: 0.62 mg/kg/injection, schedule: Q01DX Z (ip), vehicle: carboxymethylcellulose (CMC)): 103 % of control
T/C (dose: 1.25 mg/kg/injection, schedule: Q01DX Z (ip), vehicle: carboxymethylcellulose (CMC)): 110 % of control
T/C (dose: 2.5 mg/kg/injection, schedule: Q01DX Z (ip), vehicle: carboxymethylcellulose (CMC)): 105 % of control
T/C (dose: 5.0 mg/kg/injection, schedule: Q01DX Z (ip), vehicle: carboxymethylcellulose (CMC)): 174 % of control
T/C (dose: 6.0 mg/kg/injection, schedule: Q01DX Z (ip), vehicle: carboxymethylcellulose (CMC)): 153 % of control
T/C (dose: 8.0 mg/kg/injection, schedule: Q01DX Z (ip), vehicle: carboxymethylcellulose (CMC)): 185 % of control
T/C (dose: 21.0 mg/kg/injection, schedule: Q01DX Z (ip), vehicle: carboxymethylcellulose (CMC)): 113 % of control
T/C (dose: 62.0 mg/kg/injection, schedule: Q01DX Z (oral), vehicle: carboxymethylcellulose (CMC)): 91 % of control
T/C (dose: 125.0 mg/kg/injection, schedule: Q01DX Z (oral), vehicle: carboxymethylcellulose (CMC)): 102 % of control
T/C (dose: 250.0 mg/kg/injection, schedule: Q01DX Z (oral), vehicle: carboxymethylcellulose (CMC)): 98 % of control
T/C (dose: 500.0 mg/kg/injection, schedule: Q01DX Z (oral), vehicle: carboxymethylcellulose (CMC)): 100 % of control

COc1ccc(OC)c(NC(=O)c2cccc(N(CCCl)CCCl)c2)c1
T/C [10]: 98 % of control
T/C [11]: 95 % of control
T/C (dose: 400.0 mg/kg/injection, schedule: Q01DX001 (ip), vehicle: other): 104 % of control

Nc1ccc(NC(=S)Nc2ccccc2)cc1
T/C (dose: 100.0 mg/kg/injection, schedule: Q01DX009 (ip), vehicle: Klucel (hydroxypropylcellulose) (HPC)): 104 % of control
T/C [1]: 93 % of control
T/C (dose: 200.0 mg/kg/injection, schedule: Q01DX009 (ip), vehicle: Klucel (hydroxypropylcellulose) (HPC)): 101 % of control
T/C [2]: 95 % of control
T/C (dose: 400.0 mg/kg/injection, schedule: Q01DX009 (ip), vehicle: Klucel (hydroxypropylcellulose) (HPC)): 97 % of control
T/C [3]: 92 % of control

c1cc2c3c(ccc4c3c1CCC4)CCC2
T/C (dose: 100.0 mg/kg/injection, schedule: Q04DX002 (ip), vehicle: gum acacia): 91 % of control
T/C (dose: 200.0 mg/kg/injection, schedule: Q04DX002 (ip), vehicle: gum acacia): 100 % of control
T/C (dose: 400.0 mg/kg/injection, schedule: Q04DX002 (ip), vehicle: gum acacia): 95 % of control

CN(C)/N=C(\CBr)c1ccc([N+](=O)[O-])cc1
T/C [4]: 96 % of control
T/C [5]: 96 % of control
T/C [6]: 89 % of control

O=C1OCCC1n1ccc(=O)[nH]c1=O (configuration not stated)
T/C (dose: 100.0 mg/kg/injection, schedule: Q01DX009 (ip), vehicle: saline): 111 % of control
T/C (dose: 200.0 mg/kg/injection, schedule: Q01DX009 (ip), vehicle: saline): 105 % of control
T/C (dose: 400.0 mg/kg/injection, schedule: Q01DX009 (ip), vehicle: saline): 106 % of control

O=C(C#Cc1ccccc1)c1ccccc1
T/C (dose: 5.0 mg/kg/injection, schedule: Q01DX009 (ip), vehicle: Klucel (hydroxypropylcellulose) (HPC)): 98 % of control
T/C (dose: 5.0 mg/kg/injection, schedule: Q04DX003 (ip), vehicle: Klucel (hydroxypropylcellulose) (HPC)): 101 % of control
T/C (dose: 10.0 mg/kg/injection, schedule: Q01DX009 (ip), vehicle: Klucel (hydroxypropylcellulose) (HPC)): 96 % of control
T/C (dose: 10.0 mg/kg/injection, schedule: Q04DX003 (ip), vehicle: Klucel (hydroxypropylcellulose) (HPC)): 103 % of control
T/C (dose: 20.0 mg/kg/injection, schedule: Q01DX001 (ip), vehicle: Klucel (hydroxypropylcellulose) (HPC)): 96 % of control
T/C (dose: 20.0 mg/kg/injection, schedule: Q01DX009 (ip), vehicle: Klucel (hydroxypropylcellulose) (HPC)): 102 % of control
T/C (dose: 20.0 mg/kg/injection, schedule: Q04DX003 (ip), vehicle: Klucel (hydroxypropylcellulose) (HPC)): 104 % of control

Cc1c(NCO)c(=O)n(-c2ccccc2)n1C
T/C [7]: 118 % of control
T/C [8]: 94 % of control
T/C [9]: 112 % of control

CCC1C(=O)OCc2c1cc(C(=O)OC)n(C)c2=O (configuration not stated)
T/C (dose: 25.0 mg/kg/injection, schedule: Q01DX001 (ip), vehicle: other): 111 % of control
T/C (dose: 50.0 mg/kg/injection, schedule: Q01DX001 (ip), vehicle: other): 108 % of control
T/C [10]: 93 % of control
T/C [11]: 93 % of control

CC(C)(C)N
T/C (dose: 100.0 mg/kg/injection, schedule: Q04DX002 (ip), vehicle: saline): 101 % of control
T/C (dose: 200.0 mg/kg/injection, schedule: Q04DX002 (ip), vehicle: saline): 101 % of control
T/C (dose: 400.0 mg/kg/injection, schedule: Q04DX002 (ip), vehicle: saline): 97 % of control

Cc1ccc(Nc2nc(N)nc(N)c2N=O)cc1C
T/C (dose: 100.0 mg/kg/injection, schedule: Q01DX Z (ip), vehicle: methylcellulose (MC)): 116 % of control
T/C (dose: 200.0 mg/kg/injection, schedule: Q01DX001 (ip), vehicle: Klucel (hydroxypropylcellulose) (HPC)): 106 % of control
T/C (dose: 200.0 mg/kg/injection, schedule: Q01DX Z (ip), vehicle: methylcellulose (MC)): 98 % of control

S=C(c1cccs1)N1CCOCC1
T/C (dose: 100.0 mg/kg/injection, schedule: Q04DX003 (ip), vehicle: gum acacia): 93 % of control
T/C (dose: 200.0 mg/kg/injection, schedule: Q04DX003 (ip), vehicle: gum acacia): 100 % of control
T/C (dose: 400.0 mg/kg/injection, schedule: Q04DX003 (ip), vehicle: gum acacia): 91 % of control

CCCCCCCC[As](=O)(O)CCCCCCCC
T/C [12]: 101 % of control
T/C [13]: 101 % of control
T/C [14]: 98 % of control
T/C (dose: 400.0 mg/kg/injection, schedule: Q01DX001 (ip), vehicle: saline): 107 % of control

CCCOc1ccc(/C=N\N=C\c2ccc(OCCC)cc2)cc1
T/C [5]: 94 % of control
T/C [6]: 94 % of control
T/C (dose: 400.0 mg/kg/injection, schedule: Q01DX009 (ip), vehicle: saline with Tween-80): 91 % of control

ClCc1cccc(CCl)c1
T/C [12]: 95 % of control
T/C (dose: 50.0 mg/kg/injection, schedule: Q01DX009 (ip), vehicle: saline sonified): 103 % of control
T/C [13]: 95 % of control
T/C (dose: 100.0 mg/kg/injection, schedule: Q01DX009 (ip), vehicle: saline sonified): 102 % of control
T/C [14]: 97 % of control
T/C (dose: 200.0 mg/kg/injection, schedule: Q01DX009 (ip), vehicle: saline sonified): 103 % of control

O=c1[nH]c(=O)n(C2SC(CO)C(O)C2O)cc1F (configuration not stated)
T/C (dose: 18.8 mg/kg/injection, schedule: Q04DX003 (ip), vehicle: saline): 102 % of control
T/C (dose: 37.5 mg/kg/injection, schedule: Q04DX003 (ip), vehicle: saline): 94 % of control
T/C (dose: 50.0 mg/kg/injection, schedule: Q04DX003 (ip), vehicle: saline): 94 % of control
T/C (dose: 100.0 mg/kg/injection, schedule: Q01DX005 (ip), vehicle: saline): 97 % of control
T/C (dose: 200.0 mg/kg/injection, schedule: Q01DX005 (ip), vehicle: saline): 95 % of control
